Assay results: patent publication US20230096789A1, “PHARMACEUTICAL COMPOSITION FOR INHIBITING INFLAMMATORY RESPONSE COMPRISING HYDROXYUREA” (priority 2020, published 2023)
Read-outs that look alike come from different tables or passages of the source.

Key:
[1] = system: mice infected with H1N1 influenza A (PR8 strain) virus; format: in vivo, mice (BALB/c)
H3N2 HongKong = test: In vitro antiviral effect, MTT cell viability in infected MDCK cells; format: cell-based, influenza A virus; details: 0.001 pfu/cell, 72 hours, hydroxyurea up to 1,561 μg/ml
H1N1 PR8 = test: as above; format: cell-based, influenza A virus; details: 0.001 pfu/cell, 72 hours, hydroxyurea up to 1,561 μg/ml
Lee = test: as above; format: cell-based, influenza B virus; details: 0.001 pfu/cell, 72 hours, hydroxyurea up to 1,561 μg/ml
[2] = system: monkeys with systemic inflammatory syndrome induced by the Western Reserve strain of vaccinia virus
mice given LPS = test: LPS-induced sepsis model (II), survival and ANC (Experimental Example 7); format: in vivo, BALB/c mice; details: for survival: until day 12; for ANC: blood on day 12
Description: Twenty-one BALB/c mice (about 8 weeks old) were divided into 3 groups (LPS, LPS+HU_30, LPS+HU_60; n=7/group). All mice received intraperitoneal administration of LPS at 10 mg/kg on day 0. The mice of the group (LPS+HU_30) received hydroxyurea (30 mg/kg/day, from day -1 to day 3) once a day, and the mice of the group (LPS+HU_60) received hydroxyurea (60 mg/kg/day, from day -1 to day 3) twice a day. Survival of the mice of each group was measured until day 12 at 3-day intervals, and blood samples were collected on day 12 to check the absolute neutrophil count in blood.

[3] = system: monkeys with systemic inflammatory syndrome induced by vaccinia virus VV^tk−; format: in vivo, cynomolgus monkeys
Description: Male cynomolgus monkeys (n=3) aged 45 to 55 months were subjected to systemic administration of only VV^tk− (1×10^8 pfu), which induces a systemic inflammatory response, or both VV^tk− and hydroxyurea (VV^tk−: 1×10^8 pfu, HU: 80 mg/kg/day and 30 mg/kg/day). Then, toxicity was evaluated by measuring levels of systemic inflammation and pustules, body temperature, body weight, and the like.

[4] = system: mice infected with the WR strain of vaccinia virus; format: in vivo; details: WR 1×10^5 pfu; HU 80 mg/kg/day on days 2 to 14, started 2 days after infection
MDCK cells = test: Cytotoxicity (CC50) by MTT assay; details: 72 hours
[5] = system: mice infected with the WR strain of vaccinia virus; format: in vivo, BALB/c mice; details: for survival: WR low (1×10^5 pfu) or high (1×10^7 pfu) dose, HU 50 mg/kg/day i.p. days 0 to 14, G-CSF 25 μg/kg/day i.p. days 0 to 5; for lung tissue histology: compared with other groups
[6] = system: mice with sepsis induced by the Western Reserve strain of vaccinia virus; details: mouse, in vivo
[7] = system: mice infected with H1N1 influenza A virus (maPR8); test: Influenza virus-induced sepsis model (II), body weight and survival (Experimental Example 6); format: in vivo, BALB/c mice
[8] = system: mice given wild-type WR strain of vaccinia virus; test: Histological analysis (H&E) of liver and lung tissues after wild-type WR vaccinia virus (Experimental Example 2.2); format: in vivo; details: wild-type WR 1×10^7 pfu intranasal, HU 50 mg/kg, G-CSF 25 μg/kg
[9] = system: mouse model with sepsis induced by lipopolysaccharide (LPS, from Escherichia coli O55: B5); test: Bacterial LPS-induced sepsis model, survival (Experimental Example 1); format: in vivo, mice; details: LPS 10 mg/kg i.p., n=7
Description: To identify whether treatment with hydroxyurea could increase survival through an immune response in a mouse model with sepsis induced by lipopolysaccharide (LPS, from Escherichia coli O55: B5L2880, Sigma), an animal experiment was performed.
Each group consisted of 7 mice, and intraperitoneal administration of LPS was performed at 10 mg/kg on day 0. Two groups excluding a control group were subjected to intraperitoneal administration of hydroxyurea at 30 mg/kg once a day or twice a day for 5 days per one week starting from the day before the treatment with LPS (FIG. 1).

[10] = WR 1×10^8 pfu + HU, vs virus only
[11] = co-administration vs virus only

Molecule: CCOC(=O)C1=C[C@@H](OC(CC)CC)[C@H](NC(C)=O)[C@@H](N)C1 [Tamiflu, oseltamivir]
- survival ([1]; mouse, in vivo): survived regardless of the concentration

Molecule: NC12CC3CC(CC(C3)C1)C2 [AMT, amantadine]
- antiviral effect (H3N2 HongKong): next clear effect
- antiviral effect (H1N1 PR8): next clear effect
- antiviral effect (Lee): next clear effect

Molecule: NC(=O)c1ncn([C@@H]2O[C@H](CO)[C@@H](O)[C@H]2O)n1 [ribavirin]
- antiviral effect (H3N2 HongKong): next clear effect
- antiviral effect (H1N1 PR8): next clear effect
- antiviral effect (Lee): next clear effect

Molecule: NC(=O)NO [hydroxyurea]
- body weight / condition course ([1]; mouse, in vivo): returned to a healthy condition on day 18
- surviving mice ([1]; n=7): 5 mice
- antiviral effect (H3N2 HongKong): did not show any antiviral effect
- systemic inflammation and skin rash lesions (pustules) ([2]; WR 1×10^8 pfu + HU 80 mg/kg/day and 30 mg/kg/day, vs virus only): remarkably weakened systemic inflammation and inhibition of skin rash lesions such as pustules
- body temperature [2, 10]: did not show any significant increase in body temperature
- body weight loss [2, 10]: no difference in body weight loss
- absolute lymphocyte count (ALC) ([2]; co-administration group, blood): decreased on average and remained stable
- absolute neutrophil count (ANC) ([2]; co-administration group, blood): decreased on average and remained stable
- white blood cell count (WBC) ([2]; co-administration group, blood): decreased on average and remained stable
- number of virus particles in blood ([2]; day 8 after virus administration, co-administration vs virus only): no significant difference
- survival (mice given LPS; LPS+HU_30: 30 mg/kg/day, day -1 to day 3, once a day): remarkably increased survival
- ANC (mice given LPS; LPS+HU_30): decreased ANC
- survival (mice given LPS; LPS+HU_60: 60 mg/kg/day, day -1 to day 3, twice a day): remarkably increased survival
- ANC (mice given LPS; LPS+HU_60): decreased ANC
- systemic inflammation and skin rash lesions (pustules) ([3]; VV^tk− 1×10^8 pfu + HU 80 mg/kg/day and 30 mg/kg/day, vs virus only): remarkably weakened systemic inflammation and inhibition of skin rash lesions such as pustules
- absolute neutrophil count ([3]; co-administration): decreased on average and remained stable
- number of virus particles ([3]; co-administration): decreased on average and remained stable
- body temperature [3, 11]: did not show any significant increase in body temperature
- body weight loss [3, 11]: no difference in body weight loss
- protective effect (survival, body weight) [4]: protective effect
- CC50 (MDCK cells): 1,561 μg/ml
- absolute neutrophil count (ANC) ([5]; WR high dose (1×10^7 pfu), HU 50 mg/kg/day): decreased absolute neutrophil count
- survival [5]: increased survival
- lung tissue histology [5]: improved aspect
- infection by immunofluorescence staining for protein A56 (bronchi) ([5]; lung tissue, between saline, G-CSF and HU groups): no significant difference between the three groups
- number of virus particles in blood [6]: highest number of virus particles
- survival until day 21 [6]: 40%
- antiviral effect (H1N1 PR8): did not show any antiviral effect
- survival ([7]; hydroxyurea 50 mg/kg q.d. days -2 to 14, until day 20, n=7): 70%
- body weight ([7]; hydroxyurea 50 mg/kg q.d., loss until day 10): recovered to the initial weight on day 20
- severity in leakage and exudate levels in the alveoli and ischemic change level in the liver tissue (order of groups) [8]: in the order of the group having received hydroxyurea, the group having received G-CSF, and the control group
- survival until day 12 ([9]; hydroxyurea 30 mg/kg i.p. once a day): 17%
- survival until day 12 ([9]; hydroxyurea 30 mg/kg i.p. twice a day): 43%
- antiviral effect (Lee): did not show any antiviral effect

B1: G-CSF (protein, UniProt P09919 31-207, looked up)
Granulocyte …: TPLGPASSLPQSFLLKCLEQVRKIQGDGAALQEKLVSECATYKLCHPEELVLLGHSLGIPWAPLSSCPSQALQLAGCLSQLHSGLFLYQGLLQALEGISPELGPTLDTLQLDVADFATTIWQQMEELGMAPALQPTQGAMPAFASAFQRRAGGVLVASHLQSFLEVSYRVLRHLAQP
- survival [5]: decreased survival
- absolute neutrophil count (ANC) ([5]; WR low or high dose, G-CSF 25 μg/kg/day): remarkably increased absolute neutrophil count
- lung tissue histology [5]: lung edema was observed
- time within which all mice died after administration of the WR strain [6]: ≤ 14 days
- severity in leakage and exudate levels in the alveoli and ischemic change level in the liver tissue (order of groups) [8]: in the order of the group having received hydroxyurea, the group having received G-CSF, and the control group
